From the supplement of paper PMC10307832

What was measured:
Assay in all cases: relative viability (nuclei count vs DMSO), 5 days (fraction); higher = more cells survive
[1] = compound: CC1=CC=C(C=C1)C(=O)CN2C3=C(CCCC3)SC2=N [Pifithrin_alpha] + NC(=O)Nc1cc(-c2cccc(F)c2)sc1C(=O)N[C@H]1CCCNC1 [AZD7762] (partner 0.2 µM)
Procedure, shortened: (§1)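 After 5 days of treatment, lung cancer cells in 1536-well plates were fixed and stained in a single step (final 0.05% Triton X-100, 1% formaldehyde, 1 ug/ml Hoechst) and their nuclei counted on 4× images. Treatment had been applied by pin tool the day after seeding as one drug alone or as a fixed anchor-drug dose with five library-drug doses (not always all listed) in √10 steps. Relative viability is the nuclei count of treated wells divided by that of vehicle wells, and values are medians of duplicate plates.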

[2] = compound: CC1=CC=C(C=C1)C(=O)CN2C3=C(CCCC3)SC2=N [Pifithrin_alpha] + Cc1nc(NC(=O)N2CCC[C@H]2C(N)=O)sc1-c1ccnc(C(C)(C)C(F)(F)F)c1 [Alpelisib] (partner 2 µM)
Procedure, shortened: as §1

[3] = compound: CC1=CC=C(C=C1)C(=O)CN2C3=C(CCCC3)SC2=N [Pifithrin_alpha] + CS(=O)(=O)CCNCc1ccc(-c2ccc3ncnc(Nc4ccc(OCc5cccc(F)c5)c(Cl)c4)c3c2)o1 [Lapatinib] (partner 2 µM)
Procedure, shortened: as §1

Axitinib + Crizotinib = compound: CNC(=O)c1ccccc1Sc1ccc2c(/C=C/c3ccccn3)n[nH]c2c1 [Axitinib] + C[C@@H](Oc1cc(-c2cnn(C3CCNCC3)c2)cnc1N)c1c(Cl)ccc(F)c1Cl [Crizotinib] (partner 1 µM)
Procedure, shortened: as §1

Cell Line NCI-H650 has a relative viability ([1]; first compound 3.162 µM) of 1.08, a relative viability ([1]; first compound 10 µM) of 0.932 and a relative viability ([1]; first compound 31.62 µM) of 0.718. It also gave a relative viability ([1]; first compound 100 µM) of 0.905, a relative viability ([2]; first compound 3.162 µM) of 1.12 and a relative viability ([2]; first compound 10 µM) of 1.13. For the same cell line, the relative viability ([2]; first compound 31.62 µM) was 0.755, the relative viability ([2]; first compound 100 µM) was 1.09 and the relative viability ([3]; first compound 3.162 µM) was 1.11. For the same cell line, the relative viability ([3]; first compound 10 µM) was 1.11, the relative viability ([3]; first compound 31.62 µM) was 0.532 and the relative viability ([3]; first compound 100 µM) was 0.767. It also gave a relative viability (Axitinib + Crizotinib; first compound 0.005 µM) of 0.859, a relative viability (Axitinib + Crizotinib; first compound 0.01581 µM) of 0.745 and a relative viability (Axitinib + Crizotinib; first compound 0.05 µM) of 0.779. It also gave a relative viability (Axitinib + Crizotinib; first compound 0.1581 µM) of 0.782 and a relative viability (Axitinib + Crizotinib; first compound 0.5 µM) of 0.903.
